# Experimental data reported in the supplement of paper PMC10307832.
# Columns and labels:
# Assay in all cases: relative viability (nuclei count vs DMSO), 5 days (fraction); higher = more cells survive
# JZL-184 + Foretinib = compound: C1CN(CCC1C(C2=CC3=C(C=C2)OCO3)(C4=CC5=C(C=C4)OCO5)O)C(=O)OC6=CC=C(C=C6)[N+](=O)[O-] [JZL-184] + COc1cc2c(Oc3ccc(NC(=O)C4(C(=O)Nc5ccc(F)cc5)CC4)cc3F)ccnc2cc1OCCCN1CCOCC1 [Foretinib] (partner 0.25 µM)
# Method in brief: (§1)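 Each reported value is a median over duplicate plates. It expresses relative viability: treated-well nuclei count divided by vehicle-well nuclei count. Lung cancer cell lines in 1536-well plates were dosed by pin tool a day after seeding, alone with one drug or with a fixed anchor-drug dose plus five library-drug doses (not always all listed) in √10 steps, and nuclei were counted after 5 days.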
# JZL-184 + Decitabine = compound: C1CN(CCC1C(C2=CC3=C(C=C2)OCO3)(C4=CC5=C(C=C4)OCO5)O)C(=O)OC6=CC=C(C=C6)[N+](=O)[O-] [JZL-184] + Nc1ncn([C@H]2C[C@H](O)[C@@H](CO)O2)c(=O)n1 [Decitabine] (partner 2 µM)
# Method in brief: as §1
# JZL-184 + Alpelisib = compound: C1CN(CCC1C(C2=CC3=C(C=C2)OCO3)(C4=CC5=C(C=C4)OCO5)O)C(=O)OC6=CC=C(C=C6)[N+](=O)[O-] [JZL-184] + Cc1nc(NC(=O)N2CCC[C@H]2C(N)=O)sc1-c1ccnc(C(C)(C)C(F)(F)F)c1 [Alpelisib] (partner 2 µM)
# Method in brief: as §1
# JZL-184 + OSI-027 = compound: C1CN(CCC1C(C2=CC3=C(C=C2)OCO3)(C4=CC5=C(C=C4)OCO5)O)C(=O)OC6=CC=C(C=C6)[N+](=O)[O-] [JZL-184] + COc1cccc2cc(-c3nc([C@H]4CC[C@H](C(=O)O)CC4)n4ncnc(N)c34)[nH]c12 [OSI-027] (partner 0.5 µM)
# Method in brief: as §1
# JZL-184 + Luminespib = compound: C1CN(CCC1C(C2=CC3=C(C=C2)OCO3)(C4=CC5=C(C=C4)OCO5)O)C(=O)OC6=CC=C(C=C6)[N+](=O)[O-] [JZL-184] + CCNC(=O)c1noc(-c2cc(C(C)C)c(O)cc2O)c1-c1ccc(CN2CCOCC2)cc1 [Luminespib] (partner 0.01 µM)
# Method in brief: as §1
Cell Line,relative viability (JZL-184 + Foretinib; first compound 0.04 µM),relative viability (JZL-184 + Foretinib; first compound 0.4 µM),relative viability (JZL-184 + Foretinib; first compound 1.265 µM),relative viability (JZL-184 + Foretinib; first compound 4 µM),relative viability (JZL-184 + Decitabine; first compound 0.04 µM),relative viability (JZL-184 + Decitabine; first compound 0.4 µM),relative viability (JZL-184 + Decitabine; first compound 1.265 µM),relative viability (JZL-184 + Decitabine; first compound 4 µM),relative viability (JZL-184 + Alpelisib; first compound 0.04 µM),relative viability (JZL-184 + Alpelisib; first compound 0.4 µM),relative viability (JZL-184 + Alpelisib; first compound 1.265 µM),relative viability (JZL-184 + Alpelisib; first compound 4 µM),relative viability (JZL-184 + OSI-027; first compound 0.04 µM),relative viability (JZL-184 + OSI-027; first compound 0.4 µM),relative viability (JZL-184 + OSI-027; first compound 1.265 µM),relative viability (JZL-184 + OSI-027; first compound 4 µM),relative viability (JZL-184 + Luminespib; first compound 0.04 µM),relative viability (JZL-184 + Luminespib; first compound 0.4 µM),relative viability (JZL-184 + Luminespib; first compound 1.265 µM),relative viability (JZL-184 + Luminespib; first compound 4 µM)
COR-L 105,0.989,0.975,0.995,1.22,0.686,0.648,0.613,0.611,0.998,1.2,0.837,0.916,0.908,0.731,0.744,0.703,0.899,0.818,0.901,0.741
NCI-H2009,1.17,0.809,1.28,1.21,0.425,0.385,0.363,0.446,1.17,1.1,1.16,1.09,0.764,0.574,0.694,0.653,1.1,0.917,1.08,1.02
NCI-H23,0.913,1.01,1.15,1.01,0.275,,0.266,0.328,0.876,0.631,0.587,0.646,0.529,0.538,0.656,0.65,0.21,,0.194,0.21
NCI-H727,0.981,0.744,0.932,0.845,0.928,0.663,0.626,1.13,0.539,0.627,0.542,0.629,0.665,0.592,0.591,0.582,0.343,0.286,0.375,0.355
